{"source": "patent US11999737B2", "about": "“Kinase inhibitors and related methods of use” (Duke University, priority 2014, dated 2024)", "key": {"[1]": {"target": "Src (Homo sapiens, UniProt P12931)", "sequence (P12931 whole entry)": "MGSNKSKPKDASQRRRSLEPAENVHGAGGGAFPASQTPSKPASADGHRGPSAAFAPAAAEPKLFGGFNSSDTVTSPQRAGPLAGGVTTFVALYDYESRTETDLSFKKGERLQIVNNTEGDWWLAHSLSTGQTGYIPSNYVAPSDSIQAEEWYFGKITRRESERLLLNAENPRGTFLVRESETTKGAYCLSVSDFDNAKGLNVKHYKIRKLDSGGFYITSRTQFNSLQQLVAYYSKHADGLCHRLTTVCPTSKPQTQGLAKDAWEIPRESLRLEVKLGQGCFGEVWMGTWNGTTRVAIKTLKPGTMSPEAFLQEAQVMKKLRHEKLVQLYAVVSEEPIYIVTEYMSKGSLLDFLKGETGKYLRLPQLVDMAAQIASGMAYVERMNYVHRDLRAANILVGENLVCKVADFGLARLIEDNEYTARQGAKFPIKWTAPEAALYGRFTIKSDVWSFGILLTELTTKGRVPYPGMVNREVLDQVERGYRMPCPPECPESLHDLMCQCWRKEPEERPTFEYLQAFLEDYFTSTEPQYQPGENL", "test": "33P-ATP filter-binding kinase assay (kinome profile)", "assay_type": "biochemical", "conditions": "10 μM HS38"}, "[2]": {"system": "MYPT1 Thr696 phosphorylation", "test": "Western blot of MYPT1 Thr696 phosphorylation in Ca2+-sensitized rabbit ileum", "conditions": "HS38 50 μM", "method": "To examine the effect of ZIPK inhibition on sensitized force, muscle strips were stimulated with an intermediate calcium concentration solution (pCa 6.5). Once force reached a plateau, strips were Ca^2+-sensitized by the addition of the agonist carbachol (5 μM). Up to 2 μM of GTP was added together with the sensitizing agonist to compensate for possible loss of GTP during permeabilization. At the plateau of Ca-sensitized force (5-10 min upon stimulation), the ZIPK inhibitor, HS38 (50 μM) or diluent (0.1% DMSO) was added and the force relaxation time course was recorded. Tissue samples were frozen 20 min after the addition of HS38 for biochemical assays of RLC20 and MYPT1 phosphorylation.\nMYPT1 and RLC20 phosphorylation: To examine the phosphorylation of MYPT1 and RLC20, rabbit ileum SM strips were treated as described above and previously reported. (Gong et al. (1995), J. Physiol.-London 486, 113-122; Kitazawa et al. (1989) J. Biol. Chem. 264, 5339-5342; Kobayashi et al. (1991) Am. J. Physiol. 260, C364-C370), Following the stimulation protocols, muscle strips were immediately frozen by immersion in −80° C. acetone with trichloroacetic acid (10% w/v) and stored at −80° C. […] Phosphorylation of MYPT1 Thr696 and of RLC20 was determined by SDS-PAGE and Western blotting. […]"}, "[3]": {"system": "LC20 monophosphorylation", "design": "species or system rat"}, "[4]": {"system": "spontaneous hypertensive rat (SHR)", "test": "HS-38 treatment of spontaneous hypertensive rats, vessel properties", "assay_type": "in vivo", "method": "The myogenic response and ZIP-dependency of pressure autoregulation were assessed. Two age groups, 8-10 weeks and 18-20 weeks, were used to permit identification of age-dependent alterations in myogenic responses associated with the onset of diabetes/hypertension and after the diseases had become fully established. Two rat models were used, spontaneous hypertensive rat(SHR) model, and Goto-Kakizaki (GK) rat model of type 2 diabetes (T2D). […] HS-38 treatment attenuated myogenic hypercontractility in the cremaster artery of spontaneously-hypertensive rats (SHR; FIG. 33; WKY=Wistar Kyoto rat, control).\nNo effect of HS38 was observed on the ratio of wall thickness/vessel diameter in the SHR mesenteric artery."}}}
{"compound": "CC(Sc1nc2c(cnn2-c2cccc(Cl)c2)c(=O)[nH]1)C(N)=O", "note": "(stereo not shown) [HS38]", "values": [{"measurement": "inhibition at 10 µM", "setting": "[1]", "result": 0, "unit": "%"}, {"measurement": "MYPT1 Thr696 phosphorylation level", "setting": "[2]", "result": "significantly reduced"}, {"measurement": "levels of LC20 monophosphorylation induced by KCl and Ang II", "setting": "[3]", "result": "could attenuate"}, {"measurement": "circumferential strain", "setting": "[4]; HS-38 treatment", "result": "increased"}, {"measurement": "vessel narrowing seen in hypertension", "setting": "[4]; HS-38 treatment", "result": "partially reversed"}, {"measurement": "myogenic hypercontractility in the cremaster artery", "setting": "[4]; HS-38 treatment, SHR", "result": "attenuated"}, {"measurement": "ratio of wall thickness/vessel diameter", "setting": "[4]; SHR mesenteric artery", "result": "No effect"}]}
